PMC3341351, “Down-Regulation of GABAA Receptor via Promiscuity with the Vasoactive Peptide Urotensin II Receptor. Potential Involvement in Astrocyte Plasticity” (PLoS ONE, 2012)
Where two headings read alike, the source gives them in different places. Where a SMILES comes first, the peptide text is derived from it. Bridges are numbered along the chain shown (N, C = ends). [ ]: non-standard residue; d: D form. pGlu = O=C1CC[C@@H](C(=O)O)N1

Columns and labels:
Format in all cases: cell-based
[1] = molecular target: T1, α2β3γ2 GABAAR co-expressed with human UT (Homo sapiens, UniProt Q9UKP6); experiment: Patch-clamp of Iso-evoked current in CHO-UT co-expressing α2β3γ2 GABAAR (CHO-UT-GABAAR); conditions: for Current inhibition by GABAAR antagonists: SR95531 10^−5 M, picrotoxin 10^−4 M
T1 construct: expressed in transfected cells; host or cells: CHO-K1 stably expressing human UT (pIRES-neo2-UT), transiently nucleofected with GABAAR subunit cDNAs
T1 sequence (Q9UKP6 1-389): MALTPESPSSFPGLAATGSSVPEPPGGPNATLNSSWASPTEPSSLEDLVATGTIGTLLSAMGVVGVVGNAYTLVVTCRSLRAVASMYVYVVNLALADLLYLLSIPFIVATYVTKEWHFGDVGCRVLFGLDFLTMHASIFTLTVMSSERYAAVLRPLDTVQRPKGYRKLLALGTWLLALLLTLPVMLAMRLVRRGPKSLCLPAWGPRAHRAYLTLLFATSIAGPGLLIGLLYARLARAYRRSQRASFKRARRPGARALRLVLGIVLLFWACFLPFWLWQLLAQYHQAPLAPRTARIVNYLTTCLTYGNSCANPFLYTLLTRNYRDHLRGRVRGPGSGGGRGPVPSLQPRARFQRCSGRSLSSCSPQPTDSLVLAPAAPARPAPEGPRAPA
Experimental: CHO-K1 cell lines were obtained from American Type Culture Collection (Manassas, VA, USA). The human UT stable CHO (CHO-UT) was generously provided by Dr Christophe Dubessy (Inserm, Rouen University, France) et generated by CHO electroporation with 20 µg pIRES-neo2-UT DNA and 500 µg sterile sonicated salmon sperm DNA using the EasyJect One electroporation system (Equibio, Angleur, Belgium), followed by repetitive rounds of limiting dilution of cells in G-418 (400 µg/ml) for selection. Normal or stable CHO was grown in Ham-F12 medium supplemented with 10% FBS, 1% antibiotic-antimicotic solution and 2 mM glutamine, at 37°C in a humidified incubator with an atmosphere of 5% CO2. The stable CHO-UT medium was supplemented with the antibiotic G-418 (40 µg/ml).
(§1) For transfection, cells were trypsinized (0.05%), triturated in HamF-12 containing 10% FBS media, pelleted by centrifugation, resuspended in 100 µl solution V for nucleofection by an Amaxa Nucleofector Device (Köln, Germany; set to program U-016). Experiments were performed on normal CHO or on the stable CHO-UT cells and transiently transfected with combinations of cDNA encoding α2β3γ2, α2β3γ1, α2β1γ2, α2β3γ1, α2β3, β3γ2 (4 µg of cDNA total/transfection) GABAAR subunits. Cells were seeded on 14-mm poly-L-lysine-coated glass bottom insert dishes at 5×10^5 cells in a volume of 0.5 ml/dish. Cells were incubated overnight at 37°C in a humidified incubator (5% CO2) during 16 h before electrophysiological or immunocytochemical experiments.
(§2) GABAA receptor cDNA clones; α2, β1, β3, γ1 and γ2L engineered into the expression vector pCDM8 ([…], β1, γ2) or pcDNA/Amp (β3, γ1), were generously provided by Dr Wingrove (Merk Sharp and Dohme, Harlow, UK). To obtain β3 ^HA or γ2 ^HA epitope-tagged subunits, β3 or γ2 cDNA was amplified and the PCR product was subcloned using the SalI and NotI sites of pCMV-HA (Table S2) after digestion by the same restriction enzymes.
(§3) The conventional whole-cell configuration of the patch-clamp technique was used to study the GABA-gated currents in astrocytes and granule neurons, UT stably transfected CHO, CHO-UT, and CHO transiently transfected with diverse variants of UT and GABAAR subunits. After 24-h transfection, cell culture coverslips were placed in a small chamber (1.5 ml) on a stage of a right microscope DMLFSA (Leica, Heidelberg, Germany) and superfused continuously with the following bath solution containing (in mM): NaCl, 150; KCl, 2.5; HEPES, 5; CaCl2, 2; MgCl2, 1; glucose, 10 (pH 7.4 adjusted with NaOH). The patch pipettes were fabricated from 1.5 mm (outer diameter) soft glass tubes on a two-step vertical pipette puller (List-Medical, L/M-3P-A, Darmstadt, Germany). […] ATP and GTP were added to the internal solution used to fill electrode just before recording. All recordings were obtained at RT with cells voltage-clamped at −70 mV. The GABAA receptor agonist isoguvacine was prepared in the extracellular solution and was applied to cells by pneumatic pressure ejection. To prevent desenzitization, isoguvacine was more often ejected during 5 s at 2-min intervals. ATP, GTP, or guanosine 5′-O-(2-thiodiphosphate) (GDPβS) were administered through the patch pipette solution. We investigated the effect of competitive inhibition of GDP-GTP exchange by including GDPβS in the pipette solution (in addition to the normal amount of GTP). For GDPβS and the KIC, immediately following patch rupture, GABA current recordings were performed and the experiment was commenced after an equilibration period of 15 min.
All peptide ligands, inhibitors or allosteric modulators of the GABAA receptor function were applied via gravity through a plastic tubing positioned in the vicinity of the cell body in order to maintain a sustained perfusion. In these conditions, drugs could reach the cell of interest after 30 s of perfusion. Isoguvacine was applied focally by pneumatic pressure ejection from a micropipette.

[2] = tested on: α2β3γ2 GABAAR in the absence of UT; experiment: Patch-clamp of Iso-evoked current in CHO expressing α2β3γ2 GABAAR without UT; conditions: DMCM 10^−5 M; hUII and URP 10^−8 M; [Orn^5]-URP and palosuran 10^−6 M; Iso 10^−4 M, 2 s; n = 3–18
Experimental: as §1, §2
as §3, with “min. […]” for “min.”

[3] = molecular target: T2, GABAAR in cerebellar astrocytes (UT co-expressed) (Rattus norvegicus, UniProt P49684); experiment: Whole-cell patch-clamp of isoguvacine (Iso)-evoked depolarization/chloride current in cerebellar astrocytes co-cultured with granule neurons; conditions: for inhibition at 0.1 µM: rUII 10^−7 M, 40 s, Iso 10^−4 M, mean ± SEM, n = 5
T2 construct: Astrocytes, recognized by strong GFAP staining show UT immunoreactivity; endogenous in cells; host or cells: primary rat (P7 Wistar) cerebellar astrocytes co-cultured with cerebellar granule neurons
T2 sequence (P49684 1-386): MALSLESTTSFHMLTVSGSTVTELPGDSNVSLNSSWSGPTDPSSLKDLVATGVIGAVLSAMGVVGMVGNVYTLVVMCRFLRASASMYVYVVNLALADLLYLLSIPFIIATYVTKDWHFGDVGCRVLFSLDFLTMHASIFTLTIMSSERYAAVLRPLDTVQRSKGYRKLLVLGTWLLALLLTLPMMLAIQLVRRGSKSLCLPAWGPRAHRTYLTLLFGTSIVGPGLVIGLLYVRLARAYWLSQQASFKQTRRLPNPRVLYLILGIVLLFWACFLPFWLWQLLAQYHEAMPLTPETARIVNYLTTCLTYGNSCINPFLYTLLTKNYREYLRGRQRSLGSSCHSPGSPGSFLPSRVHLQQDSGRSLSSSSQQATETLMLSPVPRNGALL
Experimental: Primary Cell Culture of astrocytes and astrocyte-neurone co-culture
Primary cultures of astrocytes were prepared as previously described. Briefly, cerebellum from 7-day-old (P7) Wistar rats were collected in DMEM/Ham-F12 (2∶1, v/v) culture medium supplemented with 2 mM glutamine, 1% insulin, 5 mM HEPES, 0.4% D(+)-glucose and 1% of the antibiotic-antimycotic solution. The tissues were disaggregated mechanically with a syringue equipped with a 1-mm gauge needle, and filtered through a 100-µm pore size mesh filter (Falcon, Becton Dickinson, Grenoble, France). Dissociated cells were resuspended in culture medium supplemented with 10% heat-inactivated FBS and seeded in 150-cm^2 culture flasks (Falcon) at a density of 20×10^6 cells/flask. Cells were incubated at 37°C in a humidified atmosphere (5% CO2) and the medium was changed twice a week. When cultures were confluent, the flasks were gently shaken on an orbital shaker at […] for 2 h. Dislodged cells were discarded and a second step of purification was performed at […] for 14–16 h. Remaining adhesive cells were collected by trypsination, centrifuged (800 g, 10 min) and plated in 150-cm^2 flasks. Suspended astrocytes were harvested and seeded in 24-well poly-L-lysine-coated plates. The purity of the cultures was previously assessed by counting the percentage of astrocytes immunostained with GFAP antibodies. The enriched cultures contained >99% astrocytes.
For astrocyte-neuron co-culture, granule cell cultures were prepared from cerebella of P7 Wistar rats as described previously. Isolated cells were plated on 14-mm culture dishes coated with poly-L-lysine (5 mM) at a density of 1.5×10^6 cells/dish and incubated at 37°C in a humidified atmosphere (5% CO2) for 1 to 10 days before use. Culture medium consisted of DMEM/Ham's F12 (75%/25%) supplemented with 10% FBS, 2 mM glutamine, 5 µg/ml insulin, 25 mM KCl and 1% of antibiotic-antimycotic solution. Co-cultures are obtained by seeding granule cells (1.5×10^6 cells/ml) on cerebellar astrocytes plated in 24-well plates after 12 hours. Co-cultures are maintained in the specific medium for neuron and incubated at 37°C in an humidified atmosphere (5% CO2) for several days.
as §3, with “min. […]” for “min.”

O=C(O)CN(CC(=O)O)c1ccccc1OCCOc1ccccc1N(CC(=O)O)CC(=O)O [BAPTA]
Reduction of hUII-induced long-term current inhibition ([1]; BAPTA 10^−4 M intracellular dialysis, n = 9): 39.29±10.16%

CCc1c(C(=O)OC)ncc2[nH]c3cc(OC)c(OC)cc3c12 [DMCM, methyl 6,7-dimethoxy-4-ethyl-β-carboline-3-carboxylate]
Effect on Iso-evoked current in the absence of UT [2]: induced inhibition of the current in most tested cells

Br.COc1ccc(-c2ccc(=N)n(CCCC(=O)O)n2)cc1 [SR95531]
Current inhibition by GABAAR antagonists ([1]; Figure S1A): 76.92±10.35%

CCCC(C)C1(CC)C(=O)NC(=O)NC1=O (stereo not shown) [pentobarbital]
Direct activation of chloride current ([1]; pentobarbital 10^−5 M, Figure S1A): directly activated a chloride current
Potentiation of the Iso-evoked current ([1]; pentobarbital 10^−5 M, reversible, Figure S1A): 196.28±12.33%

CC[C@H](C)[C@H](NC(=O)[C@@H]1CSSC[C@H](NC(=O)[C@H](CCC(=O)O)NC(=O)[C@@H]2CCCN2C(=O)[C@H](C)NC(=O)[C@@H](NC(=O)CNC(=O)[C@H](Cc2c[nH]cn2)NC(=O)[C@@H]2CCC(=O)N2)[C@@H](C)O)C(=O)N[C@@H](Cc2ccccc2)C(=O)N[C@@H](Cc2c[nH]c3ccccc23)C(=O)N[C@@H](CCCCN)C(=O)N[C@@H](Cc2ccc(O)cc2)C(=O)N1)C(=O)O [rUII] ([pGlu]HGTAPECFWKYCI-OH; disulfide 8-13)
EC50 ([3]; astrocytes, printed with a % sign before pM, read-out: EC50 for inhibition of the Iso-evoked current): 43.6 ± 23.7 pM
inhibition at 0.1 µM ([3]; co-cultured astrocytes, read-out: Inhibition of the amplitude of the Iso-evoked depolarization): 24.2 ± 7.5%
inhibition at 0.1 µM ([3]; voltage clamp −60 mV, read-out: Inhibition of the amplitude of the Iso-evoked chloride current): 33 ± 8%

picrotoxin
Current inhibition by GABAAR antagonists ([1]; Figure S1A): 56.76±4.33%

B1: UT^c-myc 319–389: peptidomimetic corresponding to the entire C-terminus cytosolic fragment of UT (protein, UniProt Q9UKP6 319-389, looked up, fragment)
chain: TRNYRDHLRGRVRGPGSGGGRGPVPSLQPRARFQRCSGRSLSSCSPQPTDSLVLAPAAPARPAPEGPRAPA
modifications: c-myc tag
Effect of UT C-terminal peptidomimetic on fast and long-term effects of hUII on GABA-evoked current ([1]; UT^c-myc 319–389 expressed in CHO-UT-GABAAR, hUII 10^−8 M): completely inhibited the fast and long-term effects of hUII on the GABA-evoked current
